Results on 17 compounds are retold here after patent publication US10626349B2, “Cleavable surfactants” (PROMEGA CORPORATION, priority 2007, dated 2020).

The target of series [1] is T1, Bacteriorhodopsin digested with chymotrypsin (Halobacterium salinarum, UniProt P02945).
T1 sequence (P02945 14-261 limits assumed): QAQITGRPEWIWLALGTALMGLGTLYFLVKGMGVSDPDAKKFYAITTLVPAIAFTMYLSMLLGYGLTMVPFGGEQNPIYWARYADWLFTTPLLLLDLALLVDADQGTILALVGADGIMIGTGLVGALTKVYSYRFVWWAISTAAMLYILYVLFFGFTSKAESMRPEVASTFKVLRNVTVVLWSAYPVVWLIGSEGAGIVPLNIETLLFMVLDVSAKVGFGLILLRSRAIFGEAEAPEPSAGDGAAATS
In words: Bacteriorhodopsin/Chymotrypsin digest, HPLC peak area versus RapiGest control. The series is classed as biochemical. The settings on record: 0.025% surfactant, BR heated (boiled) with surfactant 5 minutes at 95° C., chymotrypsin 10:1, 1 hour at 37° C.; ratio to RapiGest control. The method, then: Bacteriorhodopsin (25 μs) was heated with 0.025% Rapigest™ surfactant or the indicated compound of the invention for 5 minutes at 95° C., then digested with chymotrypsin (Sigma) at a 10:1 ratio in 125 μL 50 mM Ammonium bicarbonate for 1 hour at 37° C. After one hour TFA was added to 0.5-2% and the mixtures were incubated at 37° C. or 65° C. for 20 or 30 minutes. Degraded surfactant was removed by centrifugation at 14,000×g for 5 minutes. An aliquot of 50-100 μL of digested protein was analyzed by HPLC as described above.
Compound 3211, 3212, 3224 and Rapigest™ surfactant control for FIG. 13C reactions: Bacteriorhodopsin (25 μs) was solubilized with 0.025% compound of interest for 1-2 minutes at room temperature, then digested with chymotrypsin (Sigma) at a 10:1 ratio in 125 μL 50 mM Ammonium bicarbonate for 1 hour at 37° C. After one hour TFA was added to 0.5-2% and the mixtures were incubated at 37° C. or 65° C. for 20 or 30 minutes. Degraded surfactant was removed by centrifugation at 14,000×g for 5 minutes. An aliquot of 50-100 μL of digested protein was analyzed by HPLC as described above.
(§1) For each compound numbered below in Example 12, the rate of enhanced digestion was determined from the ratio of the surfactant peak area (surfactant # Pk. Area) to the Rapigest™ surfactant peak area (RG Pk area). Peak area was determined as the sum of all peaks integrated from 8-22 minutes.

Series [2] in a line: Solubility of the surfactant. The settings on record: for solubility in aqueous solutions (concentration dissolved to) / solubility in aqueous solutions (in words): aqueous solution; for solubilized in DMSO to: 100% DMSO.
Series [3] can be described thus: Acid and thermal degradation of the surfactant. As to conditions: for degradation after overnight incubation (in words): concentration not given; for thermolability (in words): 3266: 5 minutes at 95° C.; for acid-lability (in words): 0.5% TFA at 37° C. where stated (3237: 30 minutes), 3271 by TLC analysis.
Series [4] addresses T2, Myoglobin from horse heart digested with trypsin (Equus caballus, UniProt P68082).
T2 construct: Myoglobin from horse heart; from tissue; host or cells: horse heart
In words: Myoglobin/Trypsin digest, HPLC peak area versus RapiGest control. It counts as biochemical. The settings on record: 0.01% surfactant, trypsin 50:1, 20 minutes at 37° C.; ratio to RapiGest control, >1 = more digestion. Here is the method: Myoglobin from horse heart (typically 25 μs) was digested with trypsin (Promega) at a 50:1 ratio in a volume of 125 μL (typical) of 50 mM Ammonium bicarbonate for 20 minutes at 37° C. with 0.01% RapiGest™ surfactant or 0.01% of the indicated compound of the invention (upper and lower chromatograms, respectively). TFA was added to 0.5-2% and the mixtures were incubated at 37° C. or 65° C. for 20 or 30 minutes. Degraded surfactant was removed by centrifugation at 14,000×g for 5 minutes. HPLC analysis was performed on a 25-50 μL reaction sample using an HP1050 LC system with an Agilent Sorbax SB-C18 column (3.0×100 mm, 3.5 micron) and a gradient of 0.1% TFA (97.5% initial) and Acetonitrile, 0.01% TFA (55% final condition followed by a 100% wash step) and a flow rate of 0.75 mL/min. Peptides were detected at 214 and 280 nm.
as §1

Series [5] in a line: Hydrolytic stability in 50 mM ammonium bicarbonate (reverse-phase HPLC). The series is classed as physicochemical. Here is the method: Hydrolytic stability was measured by monitoring the change in retention time of the intact surfactant by reverse-phase HPLC. The ½-life is defined as the time required to reach 50% degradation.
Setting [6] is: 0.01% solution, 37° C. where stated.

The structures appear in SMILES notation.

T2 sequence (P68082 2-154 limits assumed): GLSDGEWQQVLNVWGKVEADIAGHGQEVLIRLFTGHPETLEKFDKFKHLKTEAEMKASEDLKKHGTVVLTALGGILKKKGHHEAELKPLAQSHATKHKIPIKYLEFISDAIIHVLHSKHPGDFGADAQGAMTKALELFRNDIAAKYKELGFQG

Regarding `CCCCCCCCCCCC(C)(C)OC(=O)SCCS(=O)(=O)O` [Compound 3189], the “surfactant Pk area/RG Pk area, Bacteriorhodopsin/Chymotrypsin digest” value in series [1] came to 0.6. For the same compound, in series [2], the “solubility in aqueous solutions (concentration dissolved to)” value (shortened to “solubility … (concentration dissolved to)”) is listed as 0.5%. Further, in series [3] (setting [6]), the “degradation of 0.01% solution (in words)” value is “degraded only after overnight incubation”. In addition, the “surfactant Pk area/RG Pk area, Myoglobin/Trypsin digest” value in series [4] stood at 1.1.
As to `CCCCCCCCCCCC(C)(C)OC(=O)NCC(O)CS(=O)(=O)[O-].[Na+]` (stereo not drawn) [Compound 3192], the “surfactant Pk area/RG Pk area, Bacteriorhodopsin/Chymotrypsin digest” value in series [1] came out at 1.1. Further, the “solubility … (concentration dissolved to)” value in series [2] was found to be 0.5%. For the same compound, the “degradation of 0.01% solution (in words)” value in series [3] (setting [6]) is given as “degraded only after overnight incubation”. Besides, the “surfactant Pk area/RG Pk area, Myoglobin/Trypsin digest” value in series [4] worked out at 1.3.
With `CCCCCCCCCCCC(C)(C)OC(=O)Nc1ccc(N(CCCCS(=O)(=O)[O-])CCCCS(=O)(=O)O)cc1.[Na+]` [Compound 3194], the “surfactant Pk area/RG Pk area, Bacteriorhodopsin/Chymotrypsin digest” value in series [1] turned out to be 1.1. For the same compound, the “solubility … (concentration dissolved to)” value in series [2] was 0.5%. The “degradation after overnight incubation (in words)” value in series [3] is given as “No degradation was observed even after overnight incubation”. In series [4], the “surfactant Pk area/RG Pk area, Myoglobin/Trypsin digest” value amounted to 0.72.
On the same counts, the results for `CCCCCCCCCCC(OC(=O)NCCCS(=O)(=O)O)c1ccc(C(F)(F)F)cc1` (stereo not drawn) [Compound 3200] are 0.8, around 0.01%, “No degradation was observed even after overnight incubation” and 0.7.
For the compound `CCCCCCOc1ccc(C(OCCCS(=O)(=O)[O-])(c2ccccc2)c2ccccc2)cc1.[Na+]` [Compound 3202], in series [1], the “surfactant Pk area/RG Pk area, Bacteriorhodopsin/Chymotrypsin digest” value was determined as 0.6. Also, the “solubility … (concentration dissolved to)” value in series [2] was around 0.01%. In addition, in series [3] (setting [6]), the “time to degradation of 0.01% solution” value was at most 30 min. For the same compound, the “surfactant Pk area/RG Pk area, Myoglobin/Trypsin digest” value in series [4] was found to be 1.1.
Turning to `CCCCCCCC(C)(C)OC(=O)NCC(O)CS(=O)(=O)O` (stereo not drawn) [Compound 3204], the “surfactant Pk area/RG Pk area, Bacteriorhodopsin/Chymotrypsin digest” value in series [1] was determined as 0.55. The “solubility … (concentration dissolved to)” value in series [2] worked out at 0.5%. Moreover, the “degradation rate (grade in words)” value in series [3] was “moderate”. Further, in series [4], the “surfactant Pk area/RG Pk area, Myoglobin/Trypsin digest” value stood at 0.87.
Consider `CCCCCCCCCOCC(C)(C)OC(=O)NCCCS(=O)(=O)O` [Compound 3205], for which the “surfactant Pk area/RG Pk area, Bacteriorhodopsin/Chymotrypsin digest” value in series [1] was 0.45. In addition, the “solubility … (concentration dissolved to)” value in series [2] is 0.5%. Moreover, the “degradation after overnight incubation (in words)” value in series [3] was “No degradation was observed even after overnight incubation”. The “surfactant Pk area/RG Pk area, Myoglobin/Trypsin digest” value in series [4] is listed as 0.3.
As to `CCCCCCCCCSCC(C)(C)OC(=O)NCCCS(=O)(=O)O` [Compound 3206], the “surfactant Pk area/RG Pk area, Bacteriorhodopsin/Chymotrypsin digest” value in series [1] was found to be 0.8. Also, in series [2], the “solubility … (concentration dissolved to)” value was 0.5%. Further, the “degradation rate (grade in words)” value in series [3] is “moderate”. For the same compound, the “surfactant Pk area/RG Pk area, Myoglobin/Trypsin digest” value in series [4] is on record as 0.26.
As for `CCCCCCCCCCCCCCC(OC(=O)NCCCS(=O)(=O)[O-])c1ccc(OC)cc1.[Na+]` (stereo not drawn) [Compound 3213], in series [1], the “surfactant Pk area/RG Pk area, Bacteriorhodopsin/Chymotrypsin digest” value is listed as 1.3. Also, the “solubility … (concentration dissolved to)” value in series [2] was 0.025%. The “surfactant Pk area/RG Pk area, Myoglobin/Trypsin digest” value in series [4] was 0.8. Further, the ½-life turned out to be 62 h in series [5] (surfactant conc. 0.0025% in 50 mM ammonium bicarbonate) and 128 h in series [5] (surfactant conc. 0.025% in 50 mM ammonium bicarbonate).
Regarding `CCCCCCCCCCOc1ccc(C(OCCN(CCCCS(=O)(=O)[O-])CCCCS(=O)(=O)[O-])(c2ccccc2)c2ccccc2)cc1.[Na+].[Na+]` [Compound 3215], the “surfactant Pk area/RG Pk area, Bacteriorhodopsin/Chymotrypsin digest” value in series [1] worked out at 1.2. Also, the “solubility … (concentration dissolved to)” value in series [2] came out at 1%. The “time to degradation in 0.5% TFA” value in series [3] (0.1% solution) is 1 h. For the same compound, in series [3], the “thermolability (in words)” value was “moderate thermolability”. Moreover, the “surfactant Pk area/RG Pk area, Myoglobin/Trypsin digest” value in series [4] is listed as 0.56.
Regarding `CCCCCCCCCCOc1ccc(C(OCCN(CCCCS(=O)(=O)[O-])CCCCS(=O)(=O)[O-])(c2ccccc2)c2ccc(OCCCCCCCCCC)cc2)cc1.[Na+].[Na+]` [Compound 3218], the “surfactant Pk area/RG Pk area, Bacteriorhodopsin/Chymotrypsin digest” value in series [1] was determined as 0.65. Also, in series [2], the “solubilized in DMSO to” value worked out at 10% and the “solubility in aqueous solutions (in words)” value is reported as “Insoluble in aqueous solutions”. The “surfactant Pk area/RG Pk area, Myoglobin/Trypsin digest” value in series [4] was found to be 0.3.
Consider `CCCCCCCCCCOc1ccc(C(OCCN(CCCCS(=O)(=O)[O-])CCCCS(=O)(=O)[O-])(c2ccccc2)c2ccc(OC)cc2)cc1.[Na+].[Na+]` (stereo not drawn) [Compound 3220], for which, in series [1], the “surfactant Pk area/RG Pk area, Bacteriorhodopsin/Chymotrypsin digest” value is listed as 0.8. In addition, in series [2], the “solubility … (concentration dissolved to)” value stood at 1%. Moreover, the “time to degradation in 0.5% TFA” value in series [3] (37° C. where stated, 0.1% solution for 3220 and 3266) was at most 0.25 h. The “thermolability (in words)” value in series [3] is given as “moderate thermolability”. Besides, the “surfactant Pk area/RG Pk area, Myoglobin/Trypsin digest” value in series [4] is recorded as 0.2.
Turning to `CCCCCCCCCCCCOc1ccc(/C=N/CCCS(=O)(=O)O)cc1` [Compound 3221], the “surfactant Pk area/RG Pk area, Bacteriorhodopsin/Chymotrypsin digest” value in series [1] came to 0.5. Moreover, the “solubility … (concentration dissolved to)” value in series [2] was 0.5%. The “surfactant Pk area/RG Pk area, Myoglobin/Trypsin digest” value in series [4] is listed as 0.13.
Turning to `CCCCCCCCCCC1COC(c2cc(OCCCS(=O)(=O)[O-])ccc2[N+](=O)[O-])O1.[Na+]` (stereo not drawn) [Compound 3225], the “surfactant Pk area/RG Pk area, Bacteriorhodopsin/Chymotrypsin digest” value in series [1] came to 0.9. Also, in series [2], the “solubilized in DMSO to” value stood at 10% and the “solubility in aqueous solutions (in words)” value was “Not soluble in aqueous solutions”. Besides, in series [3], the “acid-lability (in words)” value was “slowly degrades in 0.5% TFA at 37 °C” and the “thermolability (in words)” value is given as “No thermolability was observed”. Further, the “surfactant Pk area/RG Pk area, Myoglobin/Trypsin digest” value in series [4] came to 1.1.
Consider `CCCCCCCCCCC1COC(c2cccc(OCCCS(=O)(=O)[O-])c2)O1.[Na+]` (stereo not drawn) [Compound 3228], for which, in series [1], the “surfactant Pk area/RG Pk area, Bacteriorhodopsin/Chymotrypsin digest” value was determined as 1.2. Further, the “solubility … (concentration dissolved to)” value in series [2] worked out at 1%. For the same compound, the “degradation rate (grade in words)” value in series [3] is “low”. In addition, the “surfactant Pk area/RG Pk area, Myoglobin/Trypsin digest” value in series [4] was determined as 1.4.
Consider `CCCCCCCCCCC(OC(=O)NCCCS(=O)(=O)O)c1cc(OC)cc(OC)c1` (stereo not drawn) [Compound 3236], for which the “surfactant Pk area/RG Pk area, Bacteriorhodopsin/Chymotrypsin digest” value in series [1] stood at 0.71. Further, the “solubility … (concentration dissolved to)” value in series [2] is 1%. Also, the “degradation by acid (0.5% TFA) or by heat (boiling), in words” value in series [3] (3236: 0.1% solution in 0.5% TFA 30 minutes at 37° C. or 5 minutes of boiling without TFA) is “no degradation was observed”. Besides, the “surfactant Pk area/RG Pk area, Myoglobin/Trypsin digest” value in series [4] was found to be 1.4.
As to `CCCCCCCCCCC(OC(=O)NCCCS(=O)(=O)O)c1ccccc1OC` (stereo not drawn) [Compound 3237], the “surfactant Pk area/RG Pk area, Bacteriorhodopsin/Chymotrypsin digest” value in series [1] came to 1. Besides, the “solubility … (concentration dissolved to)” value in series [2] was 0.5%. Besides, in series [3], the “acid-lability (in words)” value is “Moderate degradation was observed”. In addition, in series [4], the “surfactant Pk area/RG Pk area, Myoglobin/Trypsin digest” value amounted to 1.4.
